Legend:
[1] = biological target: T1, KDR tyrosine kinase (Homo sapiens, UniProt P35968); test: KDR in vitro ELISA (tyrosine kinase activity); assay type: biochemical; conditions: ATP 5 μM, 5% DMSO, poly(Glu,Tyr) 4:1 substrate
T1 construct: poly-His6 (N); made in house; host or cells: SF-9 insect cells (recombinant baculovirus, pVL1393)
Excerpt: The coding sequence for the KDR intra-cellular domain (aa789-1354) was generated through PCR using cDNAs isolated from HUVEC cells. A poly-His6 sequence was introduced at the N-terminus of this protein as well. This fragment was cloned into transfection vector pVL1393 at the Xba 1 and Not 1 site. Recombinant baculovirus (BV) was generated through co-transfection using the BaculoGold Transfection reagent (PharMingen). Recombinant BV was plaque purified and verified through Western analysis. For protein production, SF-9 cells were grown in SF-900-II medium at 2×10^6/ml, and were infected at 0.5 plaque forming units per cell (MOI). Cells were harvested at 48 hours post infection.
SF-9 cells expressing (His)6KDR(aa789-1354) were lysed by adding 50 ml of Triton X-100 lysis buffer (20 mM Tris, pH 8.0, 137 mM NaCl, 10% glycerol, 1% Triton X-100, 1 mM PMSF, 10 μg/ml aprotinin, 1 μg/ml leupeptin) to the cell pellet from 1 L of cell culture. The lysate was centrifuged at 19,000 rpm in a Sorval SS-34 rotor for 30 min at 4° C. The cell lysate was applied to a 5 ml NiCl2 chelating sepharose column, equilibrated with 50 mM HEPES, pH7.5, 0.3 M NaCl. KDR was eluted using the same buffer containing 0.25 M imidazole. Column fractions were analyzed using SDS-PAGE and an ELISA assay (below) which measures kinase activity. The purified KDR was exchanged into 25 mM HEPES, pH7.5, 25 mM NaCl, 5 mM DTT buffer and stored at −80° C.
The disclosed protocol can be adapted for determining activity with respect to a specific RTK. For example, preferred protocols for conducting the ELISA experiments for KDR is provided below. Adaptation of these protocols for determining a compound's activity for other members of the RTK family, as well as non-receptor tyrosine kinases, are well within the abilities of those in the art. […]
Stop with 1M Phosphoric acid. Shake on plate reader.
Read OD immediately at 450 nm
Optimal incubation times and enzyme reaction conditions vary slightly with enzyme preparations and are determined empirically for each lot.

[2] = test system: Human umbilical vein endothelial cells (HUVEC); test: HUVEC mitogenesis assay (tritiated thymidine incorporation); assay type: cell-based; conditions: mitogenesis induced by VEGF, FGF or Complete Media (stimulus not given)
Experimental: B. HUVEC Mitogenesis Assay
Human umbilical vein endothelial cells (HUVEC) were cultured in EGM-Complete Media (endothelial growth media supplemented with 10% FBS, hydrocortisone, epidermal growth factor and bovine brain extract as per the supplier's directions). Cells, media and supplements were purchased from Clonetics (San Diego, Calif.). The HUVEC Mitogenesis Assay was used to measure inhibition of mitogenesis induced by VEGF, FGF or Complete Media. Cells were harvested by trypsinization, washed once and suspended in Complete Media (CM) at a concentration of 5,000 cells/0.15 ml. Cells were seeded into 96-well plates at 5,000 cells/well and incubated at 37° C. for 24 hours. Cells were washed once with serum-free media (SFM) and incubated under serum-free conditions for 24 hours. Non-serum starved control wells were cultured with CM during this period. Test compounds were prepared as 10 mM stock solutions in DMSO, diluted in SFM and added to wells over a concentration range (0.005-50 μM final concentration). Cells were incubated for 1 hour prior to addition of 50 ng/ml VEGF or FGF (R & D Systems, Minneapolis, Minn.). Complete media stimulated wells received the test compound and stimulus simultaneously. […] Plates were harvested onto filter mats with a Tomtec Harvester and counted with a Betaplate liquid scintillation counter (Wallac).

[3] = biological target: T2, KDR (Homo sapiens, UniProt P35968); test: VEGF-induced KDR phosphorylation in HUVEC measured by Western blots; assay type: cell-based; conditions: VEGF(165) 50 ng/ml, Western blot, read-out: cellular IC50 (VEGF-induced KDR phosphorylation)
T2 construct: HUVEC cells (from pooled donors) were purchased from Clonetics (San Diego, Calif.) and cultured according to the manufacturer directions; host or cells: HUVEC (pooled donors, passages 3-8)
T2 sequence (P35968 20-1356): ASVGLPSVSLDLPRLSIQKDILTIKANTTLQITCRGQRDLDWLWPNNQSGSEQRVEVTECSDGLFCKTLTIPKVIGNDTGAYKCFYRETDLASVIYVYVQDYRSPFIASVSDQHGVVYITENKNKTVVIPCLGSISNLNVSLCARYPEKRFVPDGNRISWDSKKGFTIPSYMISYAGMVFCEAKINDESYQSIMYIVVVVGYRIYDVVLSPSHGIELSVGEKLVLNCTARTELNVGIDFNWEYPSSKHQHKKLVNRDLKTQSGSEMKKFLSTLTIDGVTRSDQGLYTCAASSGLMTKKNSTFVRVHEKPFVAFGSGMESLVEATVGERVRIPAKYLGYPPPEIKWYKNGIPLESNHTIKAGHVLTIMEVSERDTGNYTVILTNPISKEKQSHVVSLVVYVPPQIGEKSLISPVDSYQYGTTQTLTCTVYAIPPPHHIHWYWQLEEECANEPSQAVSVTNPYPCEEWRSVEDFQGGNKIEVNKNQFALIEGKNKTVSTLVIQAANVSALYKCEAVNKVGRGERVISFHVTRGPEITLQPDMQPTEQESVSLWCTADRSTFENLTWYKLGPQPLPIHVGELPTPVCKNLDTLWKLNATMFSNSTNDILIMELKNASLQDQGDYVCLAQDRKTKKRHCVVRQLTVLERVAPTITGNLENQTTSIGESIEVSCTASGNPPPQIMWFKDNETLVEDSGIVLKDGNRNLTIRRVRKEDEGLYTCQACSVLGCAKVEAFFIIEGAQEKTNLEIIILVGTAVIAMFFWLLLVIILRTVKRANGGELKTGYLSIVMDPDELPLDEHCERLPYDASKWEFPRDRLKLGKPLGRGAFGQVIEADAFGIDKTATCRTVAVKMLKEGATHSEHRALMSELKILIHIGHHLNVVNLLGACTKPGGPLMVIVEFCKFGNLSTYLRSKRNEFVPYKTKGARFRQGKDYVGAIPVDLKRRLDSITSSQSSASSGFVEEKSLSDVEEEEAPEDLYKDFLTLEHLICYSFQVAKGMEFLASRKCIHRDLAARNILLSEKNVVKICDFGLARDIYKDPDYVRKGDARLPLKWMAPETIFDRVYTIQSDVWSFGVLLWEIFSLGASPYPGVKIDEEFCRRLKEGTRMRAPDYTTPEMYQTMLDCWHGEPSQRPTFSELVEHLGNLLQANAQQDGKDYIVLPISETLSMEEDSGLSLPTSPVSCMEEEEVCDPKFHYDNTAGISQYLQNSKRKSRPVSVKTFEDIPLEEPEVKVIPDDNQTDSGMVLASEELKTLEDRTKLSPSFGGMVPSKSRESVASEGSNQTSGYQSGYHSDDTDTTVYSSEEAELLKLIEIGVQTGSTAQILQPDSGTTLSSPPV
Experimental: A. VEGF-Induced KDR Phosphorylation in Human Umbilical Vein Cells (HUVEC) as Measured by Western Blots.
1. HUVEC cells (from pooled donors) were purchased from Clonetics (San Diego, Calif.) and cultured according to the manufacturer directions. Only early passages (3-8) were used for this assay. Cells were cultured in 100 mm dishes (Falcon for tissue culture; Becton Dickinson; Plymouth, England) using complete EBM media (Clonetics).
2. For evaluating a compound's inhibitory activity, cells were trypsinized and seeded at 0.5-1.0×10^5 cells/well in each well of 6-well cluster plates (Costar; Cambridge, Mass.).
3. 3-4 days after seeding, plates were 90-100% confluent. Medium was removed from all the wells, cells were rinsed with 5-10 ml of PBS and incubated 18-24 h with 5 ml of EBM base media with no supplements added (i.e., serum starvation).
4. Serial dilutions of inhibitors were added in 1 ml of EBM media (25 uM, 5 uM, or 1 uM final concentration) to cells and incubated for one hour at 37° C. Human recombinant VEGF(165) (R&D Systems) was then added to all the wells in 2 ml of EBM medium at a final concentration of 50 ng/ml and incubated at 37° C. for 10 minutes. Control cells untreated or treated with VEGF only were used to assess background phosphorylation and induction by VEGF.
5. […]

T1 sequence (P35968 789-1354): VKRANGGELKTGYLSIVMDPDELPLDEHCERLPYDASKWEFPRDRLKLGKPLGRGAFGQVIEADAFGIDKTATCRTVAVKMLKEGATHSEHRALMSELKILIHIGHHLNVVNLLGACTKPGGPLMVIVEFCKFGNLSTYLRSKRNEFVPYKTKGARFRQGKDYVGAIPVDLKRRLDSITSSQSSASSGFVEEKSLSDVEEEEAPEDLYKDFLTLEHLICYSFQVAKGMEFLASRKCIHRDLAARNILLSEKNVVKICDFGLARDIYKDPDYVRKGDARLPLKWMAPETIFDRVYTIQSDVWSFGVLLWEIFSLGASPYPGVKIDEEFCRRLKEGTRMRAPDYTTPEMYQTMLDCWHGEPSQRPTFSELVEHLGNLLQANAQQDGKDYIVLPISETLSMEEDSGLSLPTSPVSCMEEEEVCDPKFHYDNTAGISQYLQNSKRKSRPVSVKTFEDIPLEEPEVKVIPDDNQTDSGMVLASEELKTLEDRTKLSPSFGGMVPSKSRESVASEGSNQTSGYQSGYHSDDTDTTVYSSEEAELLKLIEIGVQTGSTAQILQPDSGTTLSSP

| SMILES | melting point [°C] | IC50 [1] [µM] | further results |
| --- | --- | --- | --- |
| OC1c2ccccc2-c2[nH]nc(-c3ccccc3)c21 (stereo not shown) [Example 7, 3-phenyl-1,4-dihydroindeno[1,2-c]pyrazol-4-ol] | 269 to 272 | – | – |
| COc1ccc(-c2n[nH]c3c2C(O)c2ccccc2-3)cc1OC (stereo not shown) [Example 6, 3-(3,4-dimethoxyphenyl)-1,4-dihydroindeno[1,2-c]pyrazol-4-ol] | 197 to 199 | – | – |
| Cc1c2c(nn1-c1ccccc1)-c1ccccc1C2=O | – | > 100 | – |
| O=C1c2ccccc2-c2[nH]nc(-c3ccc(Cl)cc3)c21 [Example 3, 3-(4-chlorophenyl)indeno[1,2-c]pyrazol-4(1H)-one] | > 330 | – | – |
| C1=NC(n2nc(-c3ccccc3)cc2-c2ccccc2)NC1 (stereo not shown) | – | > 100 | – |
| CN1NC(c2ccccc2)C2=C1c1ccccc1C2=O (stereo not shown) [Example 5, 1-methyl-3-phenylindeno[1,2-c]pyrazol-4(2H)-one] | 187 to 188 | – | – |
| COc1cc(-c2n[nH]c3c2C(=O)c2ccccc2-3)cc(OC)c1OC [Example 2, 3-(3,4,5-Trimethoxyphenyl)indeno[1,2-c]pyrazol-4(1H)-one] | 268 to 272 | – | – |
| O=C1c2ccccc2-c2[nH]nc(-c3ccccc3)c21 [3-phenylindeno[1,2-c]pyrazol-4(1H)-one] | – | 0.15 | IC50 [2]: < 0.1 µM; IC50 [3]: 3 µM |

Reference: patent publication US6534655B1, “Indeno[1,2-C]pyrazole derivatives for inhibiting tyrosine kinase activity” (BASF Aktiengesellschaft, priority 1997, dated 2003)
